Measured values taken from patent US20060040338A1, “Pharmacological profiling of drugs with cell-based assays” (Odyssey Thera, Inc., priority 2004, published 2006).
“Also recorded” adds a separate entry of the source.

What was measured:
Format in all cases: cell-based, human
phospho-Hsp27 = phospho-Hsp27 immunofluorescence high-content assay; details: HEK293T cells; for effect on EGF-induced Hsp27 phosphorylation: drug 90 min (PD98059 20 micromolar, SB203580 25 micromolar), 100 ng/ml hEGF during last 5 min; for Hsp27 phosphorylation (p38 pathway), agent alone: anisomycin 10 micrograms/ml 10 min, hEGF 100 ng/ml 5 min
Experimental: (§1) We assessed the effects of the above-mentioned compounds on the three pathways and used the results to construct pharmacological profiles for the agents. Specifically we assessed changes in the phosphorylation status of the pathway ‘sentinels’ by constructing high-content, immunofluorescence assays using phospho-specific antibodies targeted to the downstream proteins in the pathways of interest. Human cells (HEK293) were treated with drugs and the phosphorylation status of the three downstream proteins was assessed in the absence or presence of epidermal growth factor (EGF). Cells were then fixed and probed with antisera generated against the phosphorylated forms of CREB (S133), ERK1/2 (phospho T*EY*), or phospho Hsp27 (S78/S82). The ERK1/2 antibodies specifically recognize the MAPK/ERK1 and MAPK/ERK2 protein kinases only when they are phosphorylated on Threonine 202 and Tyrosine 204 in the activation loop. […] Changes in the level and sub-cellular localization of a phosphorylated protein following treatment with a drug would indicate a functional connection between the drug and the pathway of interest.
(§2) Details of the methods used are as follows. HEK293T cells were seeded in black-walled, poly-lysine coated 96-well plates (Greiner) at a density of 30,000/well. After 24 hours, cells in duplicate wells were treated with combinations of different drugs and stimulus as follows: (a) 2 micromolar isoproterenol or 1 micromolar forskolin for 15 min.; (b) 25 micromolar SB203580 or vehicle (DMSO) for 90 minutes and 10 micrograms/ml anisomycin added to the cells during the last 10 min.; (c) 20 microolar PD98059, 25 micromolar SB203580, 5 microM 17-AAG or vehicle alone for 90 min. (d) as for (c), but with 100 ng/ml hEGF added to the cells during the last 5 min of drug treatment. The drugs were purchased from Calbiochem and hEGF was from Roche. Four sets of cells treated as described were prepared. The cells were rinsed once with PBS and fixed with 4% formaldehyde for 10 min. The cells were subsequently permeabilized with 0.25% Triton X-100 in PBS and incubated with 3% BSA for 30 min to block non-specific antibody binding. Each of the 4 sets of identically treated cells were then incubated with rabbit antibodies against phosphorylated CREB (Ser133), Hsp27 (Ser82), or pERK (T202/Y204) (Cell Signaling Technology, Inc.). Control wells were incubated with bovine serum albumin (BSA) in PBS. The cells were rinsed with PBS and incubated with Alexa488 conjugated goat anti-rabbit secondary antibody (Molecular Probes). Cell nuclei were stained with Hoechst33342 (Molecular Probes).
(§3) Images were acquired using Discovery-1 High Content Imaging System (Molecular Devices). Background fluorescence due to nonspecific binding by the secondary antibody was established with the use of cells that were incubated with BSA/PBS and without primary antibodies.
(§4) Raw images in 16-bit grayscale TIFF format were analyzed using ImageJ API/library (http://rsb.info.nih.gov/ij/, NIH, MD). First, images from the fluorescence channels (Hoechst and Alexa 488) were normalized using the ImageJ built-in rolling-ball algorithm [S. R. Sternberg, Biomedical image processing. Computer, 16(1), January 1983]. Next a threshold was established to separate the foreground from background. An iterative algorithm based on Particle Analyzer from ImageJ is applied to the thresholded Hoechst channel image (HI) to obtain the total cell count. The nuclear region of a cell (nuclear mask) is also derived from the thresholded HI. […]

phospho-ERK = phospho-ERK (T202/Y204) immunofluorescence high-content assay; details: HEK293T cells; for effect on EGF-stimulated ERK phosphorylation: drug 90 min (PD98059 20 micromolar, SB203580 25 micromolar, 17-AAG 5 microM), 100 ng/ml hEGF during last 5 min; for ERK/MAP kinase phosphorylation, agent alone: isoproterenol 2 micromolar or forskolin 1 micromolar 15 min, anisomycin 10 micrograms/ml 10 min, hEGF 100 ng/ml 5 min
Experimental: as §1, §2, §3
as §4, with “HI. The positive particle mask is generated from the thresholded Alexa 488 image (YI). To calculate the global background (gBG), a histogram was obtained from the un-thresholded Alexa signal and the pixel intensity of the lowest intensity peak was identified as gBG. The Hoechst mask and Alexa mask are overlapped to define the correlated sub-regions of the cell. All means were corrected for the corresponding gBG.” for “HI.”

phospho-CREB = phospho-CREB (S133) immunofluorescence high-content assay; details: HEK293T cells; for phosphorylation of CREB (phospho-CREB intensity), agent alone / subcellular distribution of phospho-CREB: isoproterenol 2 micromolar or forskolin 1 micromolar 15 min, anisomycin 10 micrograms/ml 10 min, relative to untreated control; for phosphorylation of CREB (phospho-CREB intensity), agent alone: hEGF 100 ng/ml 5 min
Experimental: as §1, §2, §3
as §4, with “HI. The positive particle mask is generated from the thresholded Alexa 488 image (YI). To calculate the global background (gBG), a histogram was obtained from the un-thresholded Alexa signal and the pixel intensity of the lowest intensity peak was identified as gBG. The Hoechst mask and Alexa mask are overlapped to define the correlated sub-regions of the cell. All means were corrected for the corresponding gBG.” for “HI.”

Compound	effect on EGF-induced Hsp27 phosphorylation (phospho-Hsp27)	effect on EGF-stimulated ERK phosphorylation (phospho-ERK)	effect on EGF-induced phospho-CREB (phospho-CREB; drug 90 min (PD98059 20 micromolar), 100 ng/ml hEGF during last 5 min)	Hsp27 phosphorylation (p38 pathway), agent alone (phospho-Hsp27)	ERK/MAP kinase phosphorylation, agent alone (phospho-ERK)	phosphorylation of CREB (phospho-CREB intensity), agent alone (phospho-CREB)	subcellular distribution of phospho-CREB (phospho-CREB)	effect on anisomycin-induced phospho-Hsp27 (phospho-Hsp27; SB203580 25 micromolar 90 min, 10 micrograms/ml anisomycin during last 10 min)
COc1cccc(-c2cc(=O)c3ccccc3o2)c1N [PD98059]	no effect	significantly blocked	reduced					
EGF: epidermal growth factor; hEGF from Roche, used as pathway stimulus				elicited p38 pathway activation	strongly stimulated	induced		
COc1ccc(C[C@H]2NC[C@H](O)[C@H]2OC(C)=O)cc1 [anisomycin]				induced	no effect	little or no effect; also recorded: no effect	little or no effect	
C[S+]([O-])c1ccc(-c2nc(-c3ccc(F)cc3)c(-c3ccncc3)[nH]2)cc1 (centres unmarked) [SB203580, 4-(4-fluorophenyl)-2-(4-methylsulfinylphenyl)-5-(4-pyridyl)1H-imidazole]	blocked	no effect						completely blocked
CC(C)NCC(O)c1ccc(O)c(O)c1 (centres unmarked) [isoproterenol]					no effects	increased	predominantly nuclear pattern	
C=CCNC1=C2C[C@@H](C)C[C@H](OC)[C@H](O)[C@@H](C)/C=C(\C)[C@H](OC(N)=O)[C@@H](OC)/C=C\C=C(/C)C(=O)NC(=CC1=O)C2=O [17-AAG, 17-allylamino-17-demethoxygeldanamycin]		effective at reducing						
